Laboratory results published in patent US20230372272A1, “USE OF CYSTINE AND DERIVATIVES THEREOF AS ANTI-THROMBOTIC AND THROMBOLYTIC AGENTS” (Georgia Tech Research Corporation, priority 2020, published 2023).

Key:
[1] = stroke patients, clinical trial; cited from earlier work
[2] = test system: FeCl3 injury-induced thrombus; set-up: dose or concentration left out as unconfirmed; conditions: after a 60 min treatment; FeCl3 injury in vivo; ADAMTS-13; cited from earlier work
[3] = test system: fibrin clots from recalcified platelet rich plasma (PRP); assay: Red clot lysis under stagnant conditions, PRP clots; assay type: cell-based, Porcine
Description: (§1) Blood Collection: Porcine blood was collected at a local abattoir immediately following slaughter into 3.5 U/mL heparin (Thermo Fisher Scientific, Waltham, MA) or 3.2% sodium citrate (Sigma-Aldrich, St. Louis, MO). Whole blood was gently agitated using an Orbit LS shaker (Laboratory Supply Network, Atkinson, NH) until perfusion and used in experiments as soon as possible the same day as collection.
(§2) Red clot formation and lysis: Platelet rich plasma (PRP) was made by separating citrated whole blood via gravity over a 2 h period and collecting the supernatant. Separation via gravity was employed instead of centrifugation to avoid platelet damage and activation. Citrated whole blood or PRP was then recalcified with CaCl2 to a final [Ca^2+] of 10 mM (Griffin, M. T., Kim, D. & Ku, D. N. Shear-induced platelet aggregation: 3D-grayscale microfluidics for repeatable and localized occlusive thrombosis. Biomicrofluidics 13, 2019), and 200 μl was transferred into 500 μal centrifuge tubes and allowed to clot and retract for 30 min. The clot was then incubated with 100 μl of either agent or control solution. The treatment solution was exchanged by removing the top 100 μl and replacement with fresh solution at 3, 6, 12, 24, and 48 h of incubation. The weight of the tube was measured immediately post-clot formation and at each timepoint after removal of old solution and prior to the replacement with fresh solution.

[4] = clinical study; cited from earlier work
[5] = test system: platelet-rich thrombi from heparinized human whole blood; assay: Example 4: thrombolysis of human blood thrombi in 3 mm collagen-coated stenotic capillary tubes; assay type: cell-based; conditions: perfusion, human whole blood thrombus
Procedure: In this example, an in-vitro randomized trial was performed using heparinized human blood in collagen-coated glass capillary tubes with a designed stenosis, mimicking arterial disease. Heparinized human blood was then infused through 3 mm capillary tubes at a constant flow rate, during which near-occlusive thrombi were formed at the region of stenosis (FIG. 11). DiNAC was then infused at a constant flow rate through the capillary tubes in order to observe thrombolytic activity, using a combination of live pressure monitoring and microscopic image capture. All infusions were control-matched with a phosphate-buffered saline solution in lieu of DiNAC.

[6] = test system: VWF- and platelet-rich white thrombi; assay: Lysis of platelet-rich white thrombi in collagen-coated stenotic capillary tube under arterial shear (perfusion of lytic agents); assay type: cell-based, Porcine; conditions: 0.02 mg/ml, 60 min perfusion
Procedure: Collagen Coating: The stenotic glass test sections (inner diameter=1.5 mm) described herein were made by the Chemistry and Biochemistry Glass Shop at Georgia Institute of Technology. The % stenosis by diameter reduction ranged from 60% to 80%. Fibrillar equine collagen (type I; Chrono-Log Corporation, Havertown, PA) was diluted 9:1 in NaCl (Sigma-Aldrich, St. Louis, MO) and incubated in the test section at the stenosis for 24 h in a warm, moist environment (Para, A., Bark, D., Lin, A. & Ku, D. Rapid platelet accumulation leading to thrombotic occlusion. Ann Biomed Eng 39, 1961-1971, 2011; Para, A. N. & Ku, D. N. A low-volume, single pass in-vitro system of high shear thrombosis in a stenosis. Thromb Res 131, 418-424, 2013).
as §1
Syringe Perfusion: Lightly heparinized whole blood was perfused through the stenotic test section using a syringe pump. The flow rate was set so that the initial wall shear rate in the stenosis was 3,500 s^−1. A pressure transducer was connected in-line upstream of the stenosis (FIG. 2A). A dissecting microscope with a camera (PCO-Tech Incorporated, Romulus, MI) was used to capture images in real-time during perfusion. Blood perfusion continued until the upstream pressure increased by 30 mmHg (equivalent to an arterial pressure head in vivo) as a result of platelet thrombus formation in the stenotic section. Perfusion with a syringe pump (constant flow rate over constant pressure head) ensured that the thrombi were never fully occlusive, allowing subsequent perfusion for the induction of lysis.
Pharmacologic Agents: Recombinant human tPA (Sigma-Aldrich, St. Louis, MO), recombinant human ADAMTS-13 (MyBiosource, San Diego, CA), abciximab (ReoPro was kindly provided by Dr. Kevin Maher at Emory/CHOA), NAC (Thermo Fisher Scientific, Waltham, MA), and DiNAC (Cayman Chemical, Ann Arbor, Ml) or control (PBS) treatments were perfused for an hour at a flow rate of 1 ml/min. Agent solutions were made by dissolution or dilution in PBS. The in vitro flow system setup and image acquisition are shown in FIG. 2, and the concentrations of each agent are detailed in Table 2.
Real-time image capture (5 frames per second) of the stenosis continued throughout treatment perfusion.
Data Analysis: The thrombi surface area (which was colored green) was calculated using manual pixel counting in the open-source GNU Image Manipulation Program (GIMP, Version 2.10.8, 1995-2018). Surface area reduction was calculated by % pixel reduction versus the occlusion image. Analysis of variance (ANOVA) was used to test for statistical differences between groups, with the significance set at p<0.05.
In this example, a stenotic capillary tube model, which potentiates VWF- and platelet-rich white thrombi in an arterial setting on a collagen-coated stenosis was used (Para, A., Bark, D., Lin, A. & Ku, D. Rapid platelet accumulation leading to thrombotic occlusion. Ann Biomed Eng 39, 1961-1971, 2011; Ku, D. N. & Flannery, C. J. Development of a flow-through system to create occluding thrombus. Biorheology 44, 273-284, 2007; Para, A. N. & Ku, D. N. A low-volume, single pass in-vitro system of high shear thrombosis in a stenosis. Thromb Res 131, 418-424, 2013) to test lysis of 90% occlusive white thrombi (FIG. 2) and perfused low (2 mM) and high (20 mM) concentrations of NAC and DiNAC solutions. As illustrated in FIG. 2. DiNAC, but not NAC, achieved thrombolysis over 60 minutes of perfusion (FIG. 3A-3D). 2 mM and 20 mM DiNAC lysed most of the thrombi (>95%) within 14 min and 1.5 min, respectively (FIG. 3A-3B).

[7] = test system: fibrin clots from recalcified citrated whole blood; assay: Red clot lysis under stagnant conditions, whole blood clots; assay type: cell-based, Porcine
Description: as §1, §2

In the case of “tPA: Recombinant human tissue plasminogen activator, a serine protease converting plasminogen to plasmin”, the “relative risk reduction versus the placebo” value [1] is listed as 30%, the “reduction of thrombus size” value [2] is listed as 53.2% and the “PRP clot lysis over 48 h” value ([3]; 48 h, DiNAC and NAC at 2 mM) is listed as “large decrease in clot volume”. For the same substance, the “clot weight reduction from baseline” value ([3]; after 12 h) was 36%, the recanalization rate [4] was “less than 30%” and the “effect on clots and flow” value [5] was “did not alter the clots or restore flow”. For the same substance, the “thrombus surface area reduction” value [6] was 23±4%, the “clot dissolution front speed” value ([7]; fibrin clots, static conditions, over 48 h) was roughly 3.5 μm/min and the “whole blood clot lysis over 48 h” value ([7]; whole blood clot, 48 h, DiNAC and NAC at 2 mM) was “large decrease in clot volume”. For the same substance, the “clot weight reduction from baseline” value ([7]; whole blood clot, after 6 h) was 26%.
